These results are taken from ChEMBL document CHEMBL4145686, “Discovery of a Potent and Selective Steroidal Glucocorticoid Receptor Antagonist (ORIC-101)” (J Med Chem, 2018).

One data set concerns the target T1, Androgen receptor (Homo sapiens, UniProt P10275).
T1 sequence (P10275 whole entry): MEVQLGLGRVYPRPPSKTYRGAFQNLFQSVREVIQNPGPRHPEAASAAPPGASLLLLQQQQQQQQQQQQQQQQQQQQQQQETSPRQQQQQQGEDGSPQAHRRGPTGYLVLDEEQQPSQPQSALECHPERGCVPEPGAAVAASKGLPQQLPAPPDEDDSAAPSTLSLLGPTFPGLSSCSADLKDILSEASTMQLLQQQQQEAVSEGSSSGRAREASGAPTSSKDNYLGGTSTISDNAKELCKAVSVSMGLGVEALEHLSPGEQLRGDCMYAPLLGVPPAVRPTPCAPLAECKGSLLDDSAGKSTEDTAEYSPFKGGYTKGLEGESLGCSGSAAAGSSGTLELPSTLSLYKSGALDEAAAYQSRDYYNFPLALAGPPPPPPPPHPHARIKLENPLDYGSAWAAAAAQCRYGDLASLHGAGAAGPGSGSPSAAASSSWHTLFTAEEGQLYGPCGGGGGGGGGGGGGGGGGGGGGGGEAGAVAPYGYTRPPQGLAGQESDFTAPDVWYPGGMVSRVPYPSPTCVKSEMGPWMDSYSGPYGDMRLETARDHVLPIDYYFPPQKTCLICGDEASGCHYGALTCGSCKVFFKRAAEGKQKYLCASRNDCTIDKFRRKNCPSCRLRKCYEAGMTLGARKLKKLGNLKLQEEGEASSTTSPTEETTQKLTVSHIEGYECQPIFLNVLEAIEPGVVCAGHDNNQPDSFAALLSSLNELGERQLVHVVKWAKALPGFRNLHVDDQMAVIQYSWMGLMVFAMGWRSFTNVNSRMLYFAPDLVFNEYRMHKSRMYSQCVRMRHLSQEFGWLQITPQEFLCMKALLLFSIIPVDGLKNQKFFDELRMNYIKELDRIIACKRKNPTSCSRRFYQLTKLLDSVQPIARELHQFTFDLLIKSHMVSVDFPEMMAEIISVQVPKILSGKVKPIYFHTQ
In words: Agonist activity at AR (unknown origin) expressed in human LNCaP cells incubated for 20 hrs by luciferase reporter gene assay. Type of data set: cell-based.

Data set [1] can be described thus: Clearance in mini pig at 0.5 mg/kg, iv. Conditions: in vivo. Type of data set: ADME, organism-based, Sus scrofa.
Data set [2] can be described thus: AUC in mini pig at 10 mg/kg, po. The class given is ADME, organism-based, Sus scrofa. The conditions noted are these: in vivo.
For a further data set, the target named is T2, Progesterone receptor (Homo sapiens, UniProt P06401).
T2 sequence (P06401 whole entry): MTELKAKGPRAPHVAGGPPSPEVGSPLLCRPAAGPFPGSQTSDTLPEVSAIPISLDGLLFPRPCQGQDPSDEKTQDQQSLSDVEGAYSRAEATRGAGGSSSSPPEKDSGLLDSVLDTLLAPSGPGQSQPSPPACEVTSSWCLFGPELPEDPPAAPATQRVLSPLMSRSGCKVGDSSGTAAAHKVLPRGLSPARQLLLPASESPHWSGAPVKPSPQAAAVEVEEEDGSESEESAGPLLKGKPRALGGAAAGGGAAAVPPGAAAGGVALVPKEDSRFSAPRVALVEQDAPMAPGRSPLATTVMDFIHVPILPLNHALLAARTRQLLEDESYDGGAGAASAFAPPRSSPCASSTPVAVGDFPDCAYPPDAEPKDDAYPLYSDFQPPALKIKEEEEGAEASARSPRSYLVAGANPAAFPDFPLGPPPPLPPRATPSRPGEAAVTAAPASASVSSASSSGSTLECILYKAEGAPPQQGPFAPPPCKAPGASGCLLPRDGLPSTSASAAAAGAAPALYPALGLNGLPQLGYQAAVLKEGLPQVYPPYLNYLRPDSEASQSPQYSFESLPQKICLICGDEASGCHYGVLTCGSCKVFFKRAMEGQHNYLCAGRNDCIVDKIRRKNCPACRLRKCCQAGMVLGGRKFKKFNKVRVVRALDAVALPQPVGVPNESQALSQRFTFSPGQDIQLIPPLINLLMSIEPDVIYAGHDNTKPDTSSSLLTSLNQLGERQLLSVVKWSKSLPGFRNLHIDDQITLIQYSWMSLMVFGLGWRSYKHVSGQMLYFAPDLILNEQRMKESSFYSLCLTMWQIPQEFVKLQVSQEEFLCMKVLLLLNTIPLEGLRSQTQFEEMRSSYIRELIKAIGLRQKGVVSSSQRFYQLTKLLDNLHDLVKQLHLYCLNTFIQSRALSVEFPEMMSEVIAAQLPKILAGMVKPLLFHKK
In words: Antagonist activity at human PR expressed in CHO-K1 cells assessed as reduction in progesterone-induced response incubated for 20 hrs by luciferase reporter gene assay. Type of data set: cell-based. On the technique in general: Reporter assays use an easily measured gene product as a stand-in for the process of interest.

The next data set addresses T3, Glucocorticoid receptor (Homo sapiens, UniProt P04150).
T3 sequence (P04150 whole entry): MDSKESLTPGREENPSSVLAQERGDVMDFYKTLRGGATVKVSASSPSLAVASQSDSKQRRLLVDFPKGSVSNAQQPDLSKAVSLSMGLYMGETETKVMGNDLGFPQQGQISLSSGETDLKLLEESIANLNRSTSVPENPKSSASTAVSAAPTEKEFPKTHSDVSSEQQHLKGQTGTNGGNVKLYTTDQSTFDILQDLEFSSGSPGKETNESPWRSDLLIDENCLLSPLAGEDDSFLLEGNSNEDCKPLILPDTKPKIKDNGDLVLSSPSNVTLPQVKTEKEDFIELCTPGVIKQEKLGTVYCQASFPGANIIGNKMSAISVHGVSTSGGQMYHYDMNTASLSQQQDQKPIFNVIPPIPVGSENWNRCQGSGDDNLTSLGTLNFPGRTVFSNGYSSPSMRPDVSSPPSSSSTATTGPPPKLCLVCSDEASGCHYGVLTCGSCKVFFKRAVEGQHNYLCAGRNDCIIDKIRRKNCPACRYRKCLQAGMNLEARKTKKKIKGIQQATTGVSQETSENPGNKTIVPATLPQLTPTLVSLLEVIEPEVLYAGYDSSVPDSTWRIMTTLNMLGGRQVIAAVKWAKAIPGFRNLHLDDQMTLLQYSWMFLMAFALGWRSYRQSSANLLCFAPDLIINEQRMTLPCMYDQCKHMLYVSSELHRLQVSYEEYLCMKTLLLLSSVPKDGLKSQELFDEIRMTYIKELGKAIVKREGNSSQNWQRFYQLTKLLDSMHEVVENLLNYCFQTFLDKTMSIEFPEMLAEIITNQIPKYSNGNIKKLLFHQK
In words: Antagonist activity at GR in human PBMC assessed as reduction in dexamethasone-induced FKBP5 gene expression incubated for 6 hrs by RT-qPCR method. Type of data set: cell-based. A general note: In qPCR the cycle at which signal appears reflects the starting amount.

Broadly, the EC50 is the midpoint of the concentration-response curve. A low value points to a more potent agent. A word on the clearance: it is the volume of plasma or blood freed of the substance per unit of time. Read a high clearance as a high capacity for elimination. A word on the AUC: it is concentration integrated over time. Read a low AUC as less exposure. Usually IC50 stands for the midpoint of a concentration-inhibition curve. On to `CC(C)N(C)c1ccc([C@H]2C[C@@]3(C)[C@@H](CC[C@@]3(O)C#CC(C)(C)C)[C@@H]3CCC4=CC(=O)CC[C@@H]4[C@H]32)cc1`, for which the EC50 at Androgen receptor was more than 2500 nM. Moreover, the clearance in data set [1] was 18.3 mL/min/kg. Also, the AUC in data set [2] came to 1720 ng·h/mL. The IC50 on Progesterone receptor was determined as 21 nM; at Glucocorticoid receptor, 19.5 nM.
